Source: patent US11827690B2, “ApoC-II mimetic peptides” (THE UNITED STATES OF AMERICA, as represented by the …, priority 2017, dated 2023)
Entries after “also recorded” stand apart in the source; their conditions may differ.

Legend:
[1] = system: VLDL isolated from human plasma; assay: ApoC-III displacement study in VLDL isolated from human plasma; type: binding
Experimental: VLDL or chylomicrons isolated from human plasma were incubated with an apoC-II mimetic peptide for 1 hour at 37° C. and washed 3 times with PBS using spin filter with 100 kDa cutoff membrane. […] ApoC-I, apoC-II, apoC-III, and apoE bands were identified by their corresponding size.

[2] = target: T1, LPL inhibited by apoC-III (Bos taurus, UniProt P11151); assay: LPL activation assay with high TG human plasma as substrate and recombinant apoC-III as an inhibitor; type: biochemical; settings: for effect on inhibition of LPL by apoC-III: high TG human plasma substrate
T1 sequence (P11151 29-478): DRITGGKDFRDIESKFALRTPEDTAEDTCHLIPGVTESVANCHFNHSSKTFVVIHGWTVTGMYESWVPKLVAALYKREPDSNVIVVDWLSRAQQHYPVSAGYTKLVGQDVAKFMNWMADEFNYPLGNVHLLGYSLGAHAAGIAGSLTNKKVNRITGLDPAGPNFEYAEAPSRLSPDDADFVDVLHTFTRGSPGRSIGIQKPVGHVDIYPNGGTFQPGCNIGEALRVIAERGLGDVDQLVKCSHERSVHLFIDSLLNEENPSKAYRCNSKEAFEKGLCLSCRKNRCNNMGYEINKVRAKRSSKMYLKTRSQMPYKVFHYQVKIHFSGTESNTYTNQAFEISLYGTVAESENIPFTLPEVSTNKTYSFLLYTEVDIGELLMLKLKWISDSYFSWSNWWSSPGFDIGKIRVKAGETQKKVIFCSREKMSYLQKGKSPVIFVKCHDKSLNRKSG
Experimental: LPL activity assay: 10 μL of Intralipid, human plasma sample, or mouse plasma sample was added in each well using repeater pipette. 10 μL (or 15 μL in the wells with no LPL control) of PBS and 10 μL of 1% BSA was added in each well using repeater pipette. 10 μL of peptides were added to corresponding wells in vertical triplicates (lowest concentration is on a left, highest is on the right). The plate was spun down at 1000 RPM for 10 seconds to mix and to remove the solutions from the wall of each well. The plate was put on ice and 5 μL of LPL was added using repeater pipette. The plate was spun down again at 1000 RPM for 10 seconds. The plate was covered and put back on ice for an incubation of 30 min. The plate was then moved to 37° C. and incubated for 1 hour.
Free fatty acids (NEFA) assay: 45 μL of 5 nmoL standard and 0 nmoL control (0.2% BSA) were added to corresponding wells. 225 μL of reagent A was added in each well using the reagent tray and 12-channel pipette. The plate was incubated for 10 min before 75 μL of reagent B was added to each well using the reagent tray and 12-channel pipette. The plate was not covered due to the high volume. The absorbance at 550 nm and 660 nm was measured.
LPL assay was performed using Intralipid, high TG human plasma (1:50 dilution), or apoC-III transgenic mouse plasma (1:50 dilution). When Intralipid was used as a substrate, 25 or 50 μM recombinant ApoC-III was added as an inhibitor. When the high TG human plasma was used as a substrate, 25 or 50 μM recombinant ApoC-III was added as an inhibitor with or without pre-incubation at 37° C. for 1 hour. An apoC-II mimetic peptide was added at various concentrations.

wild-type mice = assay: serum TG of wild-type mice after Intralipid injection with or without LPL inhibitor Triton WR1339; type: in vivo
Experimental: In some experiments, each animal received 20% Intralipid (FDA approved, Fresenius Kabi, Uppsala, Sweden) in a single dose either by oral gavage (using special sterile single-use non-toxic animal feeding needles) in a dose 10-20 μL/gram body weight (B.W.) (Tuzcu et al. Drug Chem Toxicol 37: 261-267, 2014; Kusminski et al. Nature Medicine 18: 1539-1549, 2012), or by intraperitoneal injection in a single bolus of 0.1-1.0 mL (Mahadero et al. American J Surgery 164: 45-50, 1992), or by intragastric administration of a dietetic commercially-available liquid oil (food grade vegetable, corn, soy or olive oil) in a single dose 10-20 μL/gram body weight. These oils were a source of TG—when absorbed TG tends to be broken down within 3 h (peak in 30 min) (Kritchevsky Nutritional Biochemistry 6:172-178, 1995). Blood samples (20-30 μL) were obtained from the retro-orbital plexus at time points: −1 h, 0 h, 1 h, 3 h, 6 h and 24 h for measurements of lipids. Mice were returned to metabolic cages after the 6 h time point where the food was put back. Once the study was completed (after 24 hours from the fat administration), mice were euthanized and organs collected.
The ability of apolipoprotein mimetic peptides to normalize hypertriglyceridemia in mice treated with an LPL inhibitor, Tyloxapol, in presence of high TG provided by 20% Intralipid, was assessed.
Mice were fasted overnight (approximately 12 hours) before the study and 6 hours during the study, the next day. The apo mimetic peptides were synthetically produced and free of biological contamination (not available as FDA approved compounds/treatment). Peptides were produced and used in sterile conditions and filtered by 0.2 nm filter before injections in a single dose 1-5 μmol/kg B.W. either S.C. or I.P. or I.V. (in a sterile, pharmaceutical grade PBS solution at a volume ≤200 μL). Next, 10% Tyloxapol (Triton WR-1339, T-0307, Sigma-Aldrich) was injected I.V. in a single dose of 5 μL/gram B.W., as described earlier (Zhang Y. L. et al., J Biol Chem. 279: 19362-19374, 2004; Abe C. et al., J. Nutr. 137: 345-350, 2007). […] Finally, each animal received 20% Intralipid (FDA approved, Fresenius Kabi, Uppsala, Sweden) in a single dose either by oral gavage (using special sterile single-use non-toxic animal feeding needles)—in a dose 10-20 μL/gram B.W. (Tuzcu K. et al., Drug Chem Toxicol., 37: 261-267, 2014, Kusminski C. et al., Nature Medicine. 18: 1539-1549, 2012), or by intraperitoneal injection—in a single bolus of 0.1-1.0 mL (Mahadero G. et al., American J Surgery. 164: 45-50, 1992). Blood samples (20-30 μL) were obtained from the retro-orbital plexus at time points: −1 h, 0 h, 1 h, 3 h, 6 h and 24 h for measurements of lipids. Mice were returned to metabolic cages after the 6 h time point where the food was put back. Once the study was completed (after 24 hours from the Intralipid administration), mice were euthanized and organs collected.

apoC-II displacement in VLDL ([1]; FIG. 49)	Sequence	affinity for the VLDL compared with the apolipoproteins [1]	selectivity of apolipoprotein displacement ([1]; MALDI-TOF mass spectrometry, FIG. 29A)	binding of peptide to VLDL versus concentration ([1]; MALDI-TOF, FIG. 29B)	influence of pre-incubation of apoC-III with human plasma on peptide effect [2]	concentration at which it overcame the inhibitory effect of apoC-III ([2]; 50 μM apoC-III, FIG. 32)	concentration at which it started to affect lipolysis ([2]; 50 μM apoC-III, FIG. 32)	effect on inhibition of LPL by apoC-III [2]	effect on inhibition of LPL by apoC-III ([2]; listed as ApoC-II-a)	block of rise in serum TG after IP injection of Intralipid (wild-type mice; co-injected with the LPL inhibitor Triton WR1339)	apoC-III displacement in VLDL ([1]; SDS PAGE)	effect on inhibition of LPL by Triton (wild-type mice; FIG. 35B)	serum TG increase after Intralipid injection (wild-type mice; intraperitoneal peptide, presence or absence of Triton, FIG. 35B)	serum TG increase after Intralipid injection (wild-type mice; repeat-dose study, peptide IP 1 hour after Intralipid, 0.25 and 1 μmole/kg, FIG. 46B)
–	DWLKAFYDKVAEKLKEAFPAMSTYTGIFTDQVLSVLKGEE (listed as Homo sapiens) [apoC-II-a, excluded from the claimed peptides]	higher affinity for the VLDL than the apolipoproteins	selectively replaced apoC-III and apoC-I, but not apoC-II; also recorded: selectively displaces apoC-III and apoC-I but not apoC-II	almost proportional to its concentration; also recorded: approximately proportional to its concentration	did not change the effect	about 0.2 μM	0.01 µM	further facilitated lipolysis	overcomes the inhibition by apoC-III	about 50%	–	–	–	–
also displaced	DYLKEVFEKLRDLYEKFTPAVSTYTGIFTDQVLSVLKGEE [Delta6PV]	higher affinity for the VLDL than the apolipoproteins	–	–	–	–	–	overcomes the inhibition of apoC-III	–	–	displaced apoC-III in a dose-dependent matter	reversed the inhibition of LPL by Triton	the TG increase was significantly reduced	the TG increase was significantly reduced
